A value given as a limit tells only on which side of the number the result lay.

The first assay concerns DBA/2 mice. As to the kind of experiment: Audiogenic seizure model. The class given is in vivo. Particulars: Mus musculus, po, 1 h, read-out: Seizure suppression. Here is the method: The animal model used in this test is a phenotype model for partial seizure (including secondary generalized seizure) and generalized tonic-clonic seizure, and has high clinical predictability. This test was performed in accordance with the report of De Sarro et al (Br J Pharmacol. 1988 February; 93 (2): 247-56. Anticonvulsant effects of some calcium entry blockers in DBA/2 mice. De Sarro G B, Meldrum B S, Nistico G.).
In this test example, the example compounds shown in Tables 3-1 to 3-3 below were used as test compounds.
The test compounds were suspended in 5% gum arabic/distilled water (w/v), and administered by forced oral administration to male and female DBA/2 mice (Japan SLC, Inc., 3 weeks old, 8 per group) at a dose of 30 mg/kg. After one hour of the oral administration of the test compound, each mouse was placed in a transparent acrylic cylinder 30 cm high and 23 cm in diameter, and 30 seconds were allowed for habituation. Then, they were exposed to auditory stimulation (12.6 kHz, 100-110 dB) for 1 minute or until a tonic seizure occurred.
The seizure response was assessed using the following scale, 0: no seizure, 1: wild running, 2: clonic seizure, 3: tonic seizure and 4: respiratory arrest. The maximum response was recorded as the seizure severity score.
The seizure suppression rate for each compound administration group was calculated according to the following formula.
Here, a rate of seizure suppression of 90% or more was expressed as “A”, a rate of seizure suppression of 70% or more and less than 90% was expressed as “B”, and a rate of seizure suppression of 50% or more and less than 70% was expressed as “C”.
Turning to `Cc1ncccc1-c1cnc(Oc2cc(F)cc(F)c2)nc1` [Example 56], the inhibition in vivo at 30 mg/kg is more than 90%.

With `Fc1ccc(Oc2ncc(-c3ccc(C(F)(F)F)nn3)cn2)cc1` [Example 57], the inhibition in vivo at 30 mg/kg was more than 90%.

Staying with this assay, now noted: Mus musculus; DBA/2 mice, oral, dose 3 mg/kg, auditory stimulation 1 hour after administration; read-out: Seizure suppression.
On to `COc1ccc(-c2cnc(Oc3cccc(C(F)(F)F)c3)nc2)nn1` [Example 12], for which the inhibition in vivo at 3 mg/kg was more than 90%.

For the molecule `Cc1ccc(-c2cnc(Oc3cccc(C(F)(F)F)c3)nc2)nn1` [Example 13], the inhibition in vivo at 3 mg/kg is more than 90%.

Still in this assay, the particulars now being: Mus musculus; DBA/2 mice, oral, dose 5 mg/kg, auditory stimulation 1 hour after administration; read-out: Seizure suppression.
For `c1ccc(Oc2ncc(-c3ccncc3)cn2)cc1` [Example 9], the inhibition in vivo at 5 mg/kg is more than 90%.

For the molecule `Nc1ccc(-c2cnc(Oc3ccccc3F)nc2)cn1` [Example 45], the inhibition in vivo at 5 mg/kg was more than 90%.

Regarding `Cc1cccc(Oc2ncc(-c3ccc(=O)[nH]c3)cn2)c1` [Example 106, 5-(2-(m-Tolyloxy)Pyrimidin-5-Yl)Pyridin-2 (1H)-One], the inhibition in vivo at 5 mg/kg is more than 90%.

Staying with this assay, now noted: Mus musculus; DBA/2 mice, oral, dose 30 mg/kg, auditory stimulation 1 hour after administration; read-out: Seizure suppression.
In the case of `FC(F)(F)c1cccc(Oc2ncc(-c3cccnc3)cn2)c1` [Example 14], the inhibition in vivo at 30 mg/kg is more than 90%.

Take `Cc1ccc(-c2cnc(Oc3cccc(C(F)(F)F)c3)nc2)cn1` [Example 15]: the inhibition in vivo at 30 mg/kg was more than 90%.

For the molecule `COc1ccc(-c2cnc(Oc3cccc(C(F)(F)F)c3)nc2)cn1` [Example 16], the inhibition in vivo at 30 mg/kg was more than 90%.

For `Cc1ccc(-c2cnc(Oc3cc(F)cc(F)c3)nc2)nn1` [Example 17], the inhibition in vivo at 30 mg/kg is more than 90%.

With `Fc1cc(F)cc(Oc2ncc(-c3cccnc3)cn2)c1` [Example 18], the inhibition in vivo at 30 mg/kg was more than 90%.

Take `COc1ccc(-c2cnc(Oc3cc(F)cc(F)c3)nc2)nn1` [Example 19]: the inhibition in vivo at 30 mg/kg is more than 90%.

For the molecule `Nc1ccc(-c2cnc(Oc3ccc(F)cc3)nc2)nn1` [Example 20], the inhibition in vivo at 30 mg/kg was more than 90%.

For `Cc1ccc(-c2cnc(Oc3cccc(F)c3)nc2)nn1` [Example 21], the inhibition in vivo at 30 mg/kg is more than 90%.

In the case of `COc1cc(-c2cnc(Oc3ccccc3)nc2)ccn1` [Example 23], the inhibition in vivo at 30 mg/kg is more than 90%.

In the case of `Cc1ccc(-c2cnc(Oc3ccccc3F)nc2)nn1` [Example 25], the inhibition in vivo at 30 mg/kg was more than 90%.

For `Cc1cccc(Oc2ncc(-c3ccc(C)nc3)cn2)c1` [Example 28], the inhibition in vivo at 30 mg/kg is more than 90%.

For the molecule `COc1ccc(-c2cnc(Oc3cccc(C)c3)nc2)cn1` [Example 29], the inhibition in vivo at 30 mg/kg was more than 90%.

For `Fc1cccc(Oc2ncc(-c3ccnnc3)cn2)c1` [Example 32], the inhibition in vivo at 30 mg/kg was more than 90%.

As to `Cc1cccc(Oc2ncc(-c3cccnc3)cn2)c1` [Example 35], the inhibition in vivo at 30 mg/kg is more than 90%.

Regarding `FC(F)c1ccc(-c2cnc(Oc3ccccc3)nc2)cn1` [Example 37], the inhibition in vivo at 30 mg/kg is more than 90%.

On to `Nc1ccc(-c2cnc(Oc3c(F)cccc3F)nc2)nn1` [Example 39], for which the inhibition in vivo at 30 mg/kg was more than 90%.

As to `Nc1ccc(-c2cnc(Oc3cc(F)cc(F)c3)nc2)nn1` [Example 41], the inhibition in vivo at 30 mg/kg is more than 90%.

With `Nc1ccc(-c2cnc(Oc3cccc(F)c3)nc2)cn1` [Example 43], the inhibition in vivo at 30 mg/kg was more than 90%.

For the molecule `Nc1ccc(-c2cnc(Oc3ccc(F)cc3)nc2)cn1` [Example 44], the inhibition in vivo at 30 mg/kg is more than 90%.

For the molecule `Fc1cccc(Oc2ncc(-c3ccc(C(F)(F)F)nn3)cn2)c1` [Example 46], the inhibition in vivo at 30 mg/kg is more than 90%.

Consider `Cc1ncccc1-c1cnc(Oc2cccc(F)c2)nc1` [Example 47], for which the inhibition in vivo at 30 mg/kg was more than 90%.

`Nc1ccc(-c2cnc(Oc3cccc(OC(F)(F)F)c3)nc2)cn1` [Example 48]: the inhibition in vivo at 30 mg/kg is more than 90%.

In the case of `Cc1ncccc1-c1cnc(Oc2ccc(F)cc2)nc1` [Example 49], the inhibition in vivo at 30 mg/kg is more than 90%.

For the molecule `Clc1ccc(-c2cnc(Oc3ccccc3)nc2)cn1` [Example 51], the inhibition in vivo at 30 mg/kg is more than 90%.

In the case of `Nc1ccc(-c2cnc(Oc3c(F)cccc3F)nc2)cn1` [Example 52], the inhibition in vivo at 30 mg/kg was more than 90%.

As for `Nc1ccc(-c2cnc(Oc3cc(F)cc(F)c3)nc2)cn1` [Example 53], the inhibition in vivo at 30 mg/kg was more than 90%.

As for `Cc1ncccc1-c1cnc(Oc2c(F)cccc2F)nc1` [Example 54], the inhibition in vivo at 30 mg/kg was more than 90%.

For the molecule `[O-][n+]1cccc(-c2cnc(Oc3ccccc3F)nc2)c1` [Example 60, 3-(2-(2-Fluorophenoxy)Pyrimidin-5-Yl)Pyridine 1-Oxide], the inhibition in vivo at 30 mg/kg was more than 90%.

As for `[O-][n+]1cccc(-c2cnc(Oc3cccc(F)c3)nc2)c1` [Example 61], the inhibition in vivo at 30 mg/kg is more than 90%.

As to `[O-][n+]1cccc(-c2cnc(Oc3ccc(F)cc3)nc2)c1` [Example 62], the inhibition in vivo at 30 mg/kg was more than 90%.

Consider `COc1ccc(-c2cnc(Oc3cc(F)ccc3F)nc2)nn1` [Example 63, 3-(2-(2,5-Difluorophenoxy)Pyrimidin-5-Yl)-6-Methoxypyridazine], for which the inhibition in vivo at 30 mg/kg was more than 90%.

Consider `COc1ccc(-c2cnc(Oc3ccc(F)cc3F)nc2)nn1` [Example 65], for which the inhibition in vivo at 30 mg/kg is more than 90%.

As to `FC(F)(F)Oc1cccc(Oc2ncc(-c3ccc(C(F)(F)F)nn3)cn2)c1` [Example 67], the inhibition in vivo at 30 mg/kg is more than 90%.

As to `COc1ccc(-c2cnc(Oc3cccc(F)c3F)nc2)nn1` [Example 68], the inhibition in vivo at 30 mg/kg was more than 90%.

Regarding `CC(C)(O)c1ccc(-c2cnc(Oc3ccccc3)nc2)nn1` [Example 69, 2-(6-(2-Phenoxypyrimidin-5-Yl)Pyridazin-3-Yl) Propan-2-Ol], the inhibition in vivo at 30 mg/kg was more than 90%.

As for `Cc1ccc(-c2cnc(Oc3ccccc3)nc2)c(C)n1` [Example 70], the inhibition in vivo at 30 mg/kg was more than 90%.

Take `COc1ccc(-c2cnc(Oc3cccc(Cl)c3)nc2)nn1` [Example 71]: the inhibition in vivo at 30 mg/kg is more than 90%.

Regarding `OCc1ccc(-c2cnc(Oc3ccccc3)nc2)nn1` [Example 72, (6-(2-Phenoxypyrimidin-5-Yl)Pyridazin-3-Yl) Methanol], the inhibition in vivo at 30 mg/kg was more than 90%.

Take `COc1ccc(-c2cnc(Oc3cccc(C#N)c3)nc2)nn1` [Example 73]: the inhibition in vivo at 30 mg/kg was more than 90%.

As for `Nc1nccc(-c2cnc(Oc3ccccc3)nc2)n1` [Example 75], the inhibition in vivo at 30 mg/kg was more than 90%.

As for `Cc1ncccc1-c1cnc(Oc2cccc(C(F)(F)F)c2)nc1` [Example 76], the inhibition in vivo at 30 mg/kg is more than 90%.

Consider `Cc1ncccc1-c1cnc(Oc2cccc(OC(F)(F)F)c2)nc1` [Example 77], for which the inhibition in vivo at 30 mg/kg was more than 90%.

Consider `Nc1cc(-c2cnc(Oc3cccc(F)c3)nc2)ccn1` [Example 78], for which the inhibition in vivo at 30 mg/kg is more than 90%.

`Nc1cc(-c2cnc(Oc3ccc(F)cc3)nc2)ccn1` [Example 79]: the inhibition in vivo at 30 mg/kg is more than 90%.

For `Nc1cc(-c2cnc(Oc3ccccc3F)nc2)ccn1` [Example 80], the inhibition in vivo at 30 mg/kg was more than 90%.

For `Nc1cc(-c2cnc(Oc3cccc(C(F)(F)F)c3)nc2)ccn1` [Example 81], the inhibition in vivo at 30 mg/kg is more than 90%.

`Nc1cc(-c2cnc(Oc3cc(F)cc(F)c3)nc2)ccn1` [Example 82]: the inhibition in vivo at 30 mg/kg was more than 90%.

With `Nc1cc(-c2cnc(Oc3cccc(OC(F)(F)F)c3)nc2)ccn1` [Example 83], the inhibition in vivo at 30 mg/kg is more than 90%.

Turning to `Nc1ccc(-c2cnc(Oc3cc(F)ccc3F)nc2)cn1` [Example 84, 5-(2-(2,5-Difluorophenoxy)Pyrimidin-5-Yl)Pyridin-2-Amine], the inhibition in vivo at 30 mg/kg is more than 90%.

Regarding `Nc1ccc(-c2cnc(Oc3ccc(F)c(F)c3)nc2)cn1` [Example 85], the inhibition in vivo at 30 mg/kg was more than 90%.

Consider `Nc1ccc(-c2cnc(Oc3ccc(F)cc3F)nc2)cn1` [Example 86], for which the inhibition in vivo at 30 mg/kg is more than 90%.

As to `Nc1ccc(-c2cnc(Oc3cccc(F)c3F)nc2)cn1` [Example 87], the inhibition in vivo at 30 mg/kg was more than 90%.

For the molecule `Cc1cccc(Oc2ncc(-c3ccc(N)nc3)cn2)c1` [Example 88, 5-(2-(m-Tolyloxy)Pyrimidin-5-Yl)Pyridin-2-Amine], the inhibition in vivo at 30 mg/kg was more than 90%.

With `N#Cc1cccc(Oc2ncc(-c3ccc(N)nc3)cn2)c1` [Example 89], the inhibition in vivo at 30 mg/kg is more than 90%.

As for `O=C1CCC(c2cnc(Oc3cccc(F)c3)nc2)=NN1` [Example 94, 6-(2-(3-Fluorophenoxy)Pyrimidin-5-Yl)-4,5-Dihydropyridazin-3 (2H)-One], the inhibition in vivo at 30 mg/kg was more than 90%.

Take `O=C1CCC(c2cnc(Oc3ccccc3F)nc2)=NN1` [Example 96]: the inhibition in vivo at 30 mg/kg was more than 90%.

`O=C1CCC(c2cnc(Oc3cccc(C(F)(F)F)c3)nc2)=NN1` [Example 100]: the inhibition in vivo at 30 mg/kg is more than 90%.

`O=C1CCC(c2cnc(Oc3c(F)cccc3F)nc2)=NN1` [Example 104]: the inhibition in vivo at 30 mg/kg was more than 90%.

Consider `O=C1CCC(c2cnc(Oc3cc(F)cc(F)c3)nc2)=NN1` [Example 105], for which the inhibition in vivo at 30 mg/kg is more than 90%.

Consider `O=c1ccc(-c2cnc(Oc3cc(F)ccc3F)nc2)n[nH]1` [Example 108], for which the inhibition in vivo at 30 mg/kg is more than 90%.

(Values after patent US12391674B2, “Heterocyclic compounds for the treatment of epilepsy” (OTSUKA PHARMACEUTICAL CO., LTD., priority 2018, dated 2025).)
